Patent US8492588B2, “Benzyloxy anilide derivatives useful as potassium channel modulators” (Valeant Pharmaceuticals International, priority 2008, dated 2013)

The molecules below were run against T1, KCNQ2/3 heteromultimers (Rattus norvegicus, UniProt O88943+O88944) (assay: Rubidium (Rb+) efflux test in PC-12 cells). Conditions: NGF-differentiated PC-12 cells, depolarization buffer 15 mM KCl, 10 min.
T1 construct: endogenous in cells; host or cells: PC-12 cells differentiated with NGF-7s; no transfection is described
Format: cell-based
Method: Compounds of this invention formula were evaluated for activity toward potassium channels in a cell-based Rb^+ efflux assay. This cellular bioassay is believed to faithfully represent the M current channel activities identified with KCNQ2/3 heteromultimers. […] Additionally, antiseizure activity in vivo was evaluated in a mouse maximal electroshock seizure (MES) model, and neurotoxicities were determined from a rotorod neurocognitive motor impairment model.
PC-12 cells were grown at 37° C. and 5% CO2 in DMEM/F12 Medium (Dulbecco's Modified Eagle Medium with Nutrient Mix F-12, available from Invitrogen of Carlsbad, Calif.), supplemented with 10% horse serum, 5% fetal bovine serum, 2 mM glutamine, 100 U/ml penicillin, and […] streptomycin. They were plated in poly-D-lysine-coated 96-well cell culture microplates at a density of 40,000 cells/well and differentiated with 100 ng/ml NGF-7s for 2-5 days. For the assay, the medium was aspirated, and the cells were washed once with 0.2 ml in wash buffer (25 mM HEPES, pH 7.4, 150 mM NaCl, 1 mM MgCl2; 0.8 mM NaH2PO4, 2 mM CaCl2). The cells were then loaded with 0.2 ml Rh^+ loading buffer (wash buffer plus 5.4 mM […], 5 mM glucose) and incubated at 37° C. for 2 h. Attached cells were quickly washed three times with buffer (same as Rb^+ loading buffer, but containing 5.4 mM KCl instead of RbCl) to remove extracellular Rb^+. Immediately following the wash, 0.2 ml of depolarization buffer (wash buffer plus 15 mM KCl) with or without compounds was added to the cells to activate efflux of potassium ion channels. After incubation for 10 min at room temperature, the supernatant was carefully removed and collected. Cells were lysed by the addition of 0.2 ml of lysis buffer (depolarization buffer plus 0.1% Triton X-100) and the cell lysates were also collected. If collected samples were not immediately analyzed for Rb^+ contents by atomic absorption spectroscopy (see below), they were stored at 4° C. without any negative effects on subsequent Rb^+ analysis.
The concentrations of Rb^+ in the supernatants (Rb^+Sup) and the cell lysates (Rb^+Lys) were quantified using an ICR8000 flame atomic absorption spectrometer (Aurora Biomed Inc., Vancouver, B.C.) under conditions defined by the manufacturer. Samples 0.05 ml in volume were processed automatically from microtiter plates by dilution with an equal volume of Rb^+ sample analysis buffer and injection into an air-acetylene flame. The amount of Rb^+ in the sample was measured by absorption at 780 nm using a hollow cathode lamp as light source and a PMT detector. A calibration curve covering the range 0-5 mg/L Rb^+ in sample analysis buffer was generated with each set of plates. The percent Rb^+ efflux (F) was defined by F=[Rb^+Sup/(Rb^+Sup+Rb^+Lys)]×100%. wherein the Fc is the efflux in the presence of compound in depolarization buffer, Fb is the efflux in basal buffer, and Fs is the efflux in depolarization buffer, […]. The efflux (F) and compound concentration relationship was plotted to calculate an EC50 value, a compound's concentration for 50% of maximal RV efflux. Maximal Electroshock Seizure (MES) and Acute Toxicity Tests MES Test

SMILES | EC50 [nM]
CCOC(=O)Nc1ccc(OCc2ccc(F)cc2)cc1 | 50 to 500
CCOC(=O)Nc1ccc(OCc2ccc(F)cc2)cc1F | 50 to 500
CCOC(=O)Nc1ccc(OCc2ccc(F)cc2)cc1C | 50 to 500
CCOC(=O)Nc1ccc(OCc2ccc(F)cc2)cc1C(F)(F)F | 50 to 500
Cc1cc(OCc2ccccc2C(F)(F)F)cc(C)c1NC(=O)CC(C)(C)C | 50 to 500
Cc1cc(OCc2ccc(F)cc2F)cc(C)c1NC(=O)CC(C)(C)C | 10 to 50
Cc1cc(OCc2cccc(Cl)c2)cc(C)c1NC(=O)CC(C)(C)C | 10 to 50
Cc1cc(OCc2cccc(F)c2)cc(C)c1NC(=O)CC(C)(C)C | 10 to 50

Second part, the molecule after the results:

EC50 [nM] | SMILES
1 to 10 | Cc1cc(OCc2ccc(F)c(F)c2)cc(C)c1NC(=O)CCC1CCCC1
10 to 50 | Cc1cc(OCc2ccc(F)c(F)c2)cc(C)c1NC(=O)CC(C)(C)C
1 to 10 | Cc1cc(OCc2ccc(F)cc2)cc(C)c1NC(=O)CCC1CCCC1
10 to 50 | Cc1cc(OCc2ccc(F)cc2)cc(C)c1NC(=O)CC(C)(C)C
10 to 50 | Cc1ccc(COc2cc(C)c(NC(=O)CC(C)(C)C)c(C)c2)cc1
10 to 50 | Cc1cc(OCc2cccc(C(F)(F)F)c2)cc(C)c1NC(=O)CC(C)(C)C
10 to 50 | Cc1cc(OCc2ccc(Cl)cc2)cc(C)c1NC(=O)CC(C)(C)C
10 to 50 | Cc1cc(OCc2ccc(Br)cc2)cc(C)c1NC(=O)CC(C)(C)C
10 to 50 | Cc1cc(OCc2ccc(C(F)(F)F)cc2)cc(C)c1NC(=O)CC(C)(C)C
